The NIST ThermoML archive (doi:10.1016/j.jct.2013.01.019)
Numbers after ± are expanded uncertainties.

Columns and labels:
[1] = Molar enthalpy of transition or fusion; details: Crystal; DSC
[2] = Crystal; DTA

| Compound | Molar enthalpy of transition or fusion [1] [kcal/mol] | Normal melting temperature [2] [°C] |
| --- | --- | --- |
| CCCCCCCCCCCCO [dodecan-1-ol] | 9.33 ± 0.263 | 24.00 ± 0.53 |
| CCCCCCCCCCCCCCCCCC [octadecane] | 14.7 ± 0.406 | 27.80 ± 0.53 |
